Experiment: xn = mol fraction of the nth substance listed

COC(=O)OC + C1CCCCC1
viscosity [mPa·s], 101.33 kPa
Details	x1 = 0.101	x1 = 0.1993	x1 = 0.3026	x1 = 0.3999	x1 = 0.5	x1 = 0.5996	x1 = 0.7039	x1 = 0.8005	x1 = 0.9028	x1 = 0.9031
298.15 K	0.686	0.616	–	0.535	0.52	0.507	0.499	0.502	0.515	–
303.15 K	0.636	0.573	0.533	0.5	0.485	0.475	0.47	0.472	0.491	–
308.15 K	0.59	0.535	0.498	0.463	0.455	0.445	0.442	0.444	–	0.457

COCCOCCOC + COC(C)=O
viscosity [mPa·s], 101.33 kPa
Details	x1 = 0.1	x1 = 0.198	x1 = 0.2969	x1 = 0.4015	x1 = 0.4988	x1 = 0.5951	x1 = 0.6954	x1 = 0.7941	x1 = 0.8973
298.15 K	0.441	0.498	0.559	0.621	0.683	0.741	0.801	0.861	0.922
303.15 K	0.418	0.47	0.526	0.582	0.639	0.691	0.746	0.799	0.855
308.15 K	0.396	0.445	0.496	0.548	0.6	0.646	0.696	0.745	0.795
313.15 K	0.376	0.418	0.469	0.516	0.564	0.607	0.652	0.697	0.741

O=C1NC(=O)c2ccccc21 + c1ccncc1
298.15 K, 101 kPa
Details	viscosity [mPa·s]
x1 = 0.0278	0.9878
x1 = 0.06788	1.182

CC[n+]1ccccc1.N#C[N-]C#N + CCCO
Details	viscosity [mPa·s]
313.15 K, 100 kPa, x1 = 0.8905	9.945

COCCOCCOC + ClC(Cl)Cl
298.15 K, 101.33 kPa
Details	viscosity [mPa·s]
x1 = 0.0986	0.727
x1 = 0.2039	0.946
x1 = 0.2993	1.028
x1 = 0.3966	1.082
x1 = 0.4825	1.094
x1 = 0.5247	1.093
x1 = 0.5864	1.08
x1 = 0.6365	1.072
x1 = 0.7006	1.054
x1 = 0.7976	1.033
x1 = 0.8985	1.011
x1 = 0.9325	1.008

COCCOCCOC + CCCCCCCCCCCC
viscosity [mPa·s], 101.33 kPa
Details	x1 = 0.1009	x1 = 0.1998	x1 = 0.2993	x1 = 0.4034	x1 = 0.5021	x1 = 0.6015	x1 = 0.7024	x1 = 0.8008	x1 = 0.9003
298.15 K	1.236	1.157	1.11	1.074	1.043	1.02	1.001	0.981	0.98
308.15 K	1.038	0.976	0.94	0.909	0.884	0.865	0.849	0.837	0.835
318.15 K	0.88	0.83	0.801	0.78	0.757	0.743	0.728	0.72	0.719

COCCOCCOC + CCCCCCCCCC
viscosity [mPa·s], 101.33 kPa
Details	x1 = 0.1008	x1 = 0.2018	x1 = 0.3025	x1 = 0.3984	x1 = 0.4993	x1 = 0.6592	x1 = 0.701	x1 = 0.7987	x1 = 0.9013
298.15 K	0.798	0.788	0.787	0.79	0.8	0.834	0.846	0.869	0.915
308.15 K	0.689	0.682	0.679	0.68	0.688	0.716	0.726	0.746	0.784
318.15 K	0.597	0.59	0.589	0.589	0.597	0.618	0.627	0.643	0.674

Oc1ccccc1 + O=C1CCCCC1
298.15 K, 101.3 kPa
Details	viscosity [mPa·s]
x2 = 0.79	2.24
x2 = 0.9	2.02

Cc1ccc(S(=O)O[C@@H]2C[C@H](C)CC[C@H]2C(C)C)cc1 (stereo not given in full) + CCCCO
298 K, 101.3 kPa
Details	viscosity [mPa·s]
x1 = 0.00285	2.53
x1 = 0.00515	2.538
x1 = 0.007672	2.595
x1 = 0.01005	2.623
x1 = 0.01302	2.653
x1 = 0.01567	2.683

C=CC(C)O (stereo not given) + O
viscosity [mPa·s], 101.32 kPa
Details	x1 = 0.1003	x1 = 0.2	x1 = 0.3004	x1 = 0.4	x1 = 0.5013	x1 = 0.601	x1 = 0.7012	x1 = 0.8046	x1 = 0.9031
308.15 K	1.553	1.858	1.854	1.765	1.682	1.566	1.457	1.387	1.331
313.15 K	1.347	1.617	1.612	1.535	1.461	1.369	1.28	1.231	1.171
318.15 K	1.189	1.405	1.404	1.345	1.281	1.209	1.13	1.08	1.044
323.15 K	1.049	1.243	1.24	1.187	1.138	1.078	1.007	0.9691	0.9323
